# Assays:
# [1] = system: F3; assay: Cell proliferation assay (Cell Counting Kit 8); assay type: cell-based; conditions: 96 h; F3 (normal neural stem cell line), 4 days; read-out: Growth inhibitory IC50 (GI50)
# Source text: (§1) Supplementary materials and methods […]
# (§2) Cell lines and culture conditions
# (§3) Glioblastoma cell line, LN229, was obtained from the American Type Culture Collection (ATCC, Manassas, VA, USA). Normal fibroblast cell lines TIG3 and WI-38, TM31 (low grade glioma) were obtained from the RIKEN Bioresource Research Center (Tsukuba, Japan). Onda10 and KINGS1 (low grade glioma) cell lines were obtained from the Japanese Collection of Research Bioresources (Ibaraki, Japan). F3 is utilized as a neural stem cell line{Kim, 2004 #1412}{Natsume, 2013 #1009}. All cells were maintained in DMEM medium (Wako, Osaka, Japan) containing 5% fetal bovine serum (FBS, Thermo Fisher Scientific, Waltham, MA, USA) and 1% penicillin-streptomycin (Wako). […]
# (§4) For the cell proliferation assay, cells at a density of 1 × 10^5 cells per well were seeded before treatment with LSD1 inhibitors. Cell proliferation was measured after 4 days using a Cell Counting Kit 8 (Dojindo, Kumamoto, Japan) according to the manufacturer ’s […]
# (§5) instructions. For GSC cells, the CellTiter-Glo 3D Viability Assay (Promega, Madison, WI, USA) was used to measure the living cells. […]
# [2] = system: KINGS1; assay: Cell proliferation assay (Cell Counting Kit 8); assay type: cell-based; conditions: Homo sapiens, KINGS-1, 96 h; KINGS1 (grade III glioma), 4 days; read-out: Growth inhibitory IC50 (GI50)
# Source text: as §1, §2, §3, §4, §5
# [3] = system: LN229; assay: Cell proliferation assay (Cell Counting Kit 8); assay type: cell-based; conditions: Homo sapiens, LN-229, 96 h; LN229 (GBM cell line), 4 days; read-out: Growth inhibitory IC50 (GI50)
# Source text: as §1, §2, §3, §4, §5
# [4] = system: Onda10; assay: Cell proliferation assay (Cell Counting Kit 8); assay type: cell-based; conditions: 96 h; Onda10 (grade III glioma), 4 days; read-out: Growth inhibitory IC50 (GI50)
# Source text: as §1, §2, §3, §4, §5
# [5] = system: TIG3; assay: Cell proliferation assay (Cell Counting Kit 8); assay type: cell-based; conditions: Homo sapiens, TIG-3, 96 h; TIG3 (normal fibroblast), 4 days; read-out: Growth inhibitory IC50 (GI50)
# Source text: as §1, §2, §3, §4, §5
# [6] = system: TM31; assay: Cell proliferation assay (Cell Counting Kit 8); assay type: cell-based; conditions: 96 h; TM31 (grade III glioma), 4 days; read-out: Growth inhibitory IC50 (GI50)
# Source text: as §1, §2, §3, §4, §5
# [7] = system: WI38; assay: Cell proliferation assay (Cell Counting Kit 8); assay type: cell-based; conditions: Homo sapiens, WI-38, 96 h; WI38 (normal fibroblast), 4 days; read-out: Growth inhibitory IC50 (GI50)
# Source text: as §1, §2, §3, §4, §5
# [8] = system: LN229; assay: Western blot of global histone modifications; assay type: cell-based; conditions: LN229, 5 μM, 96 h
# Procedure: The effects of S2172 on global histone modifications in GSCs were examined using western blot analysis. GSC cells were treated with 5 μM of S2172 since […] of the cells are still viable at this concentration (Fig. 2, Supplementary Fig. S1E). […] Treatment of GSCs with S2172 increased the overall levels of H3K4me2 as well as H3K9me2. However, these changes were not statistically significant (Fig. 2A, B). […]
# instructions. For GSC cells, the CellTiter-Glo 3D Viability Assay (Promega, Madison, WI, USA) was used to measure the living cells. All proliferation experiments were repeated […]
# The density of bands was quantified using ImageJ software (https://imagej.nih.gov/ij/). […]
# When mice were scanned with MRI, mice were anesthetized with isoflurane (3% in air) and placed in MRS 3017 Benchtop MRI Systems (MR Solutions, Guildford, UK). Using MRI images, tumor volumes were obtained by compiling tumor areas from all slices that contained tumors and calculated by ImageJ software (https://imagej.nih.gov/ij/) {Towner, […]
# A. Western blot analysis (left panel) of H3K4me1, H3K4me2, H3K4me3, and H3K9me2 after treatment with either DMSO or S2172 5μM for 96 h in LN229. […] Quantification of signal intensity of western blot (right panel). […] Ratio was calculated by dividing cleaved band intensity by total protein band intensity. […]
# [9] = target: LSD1 (Homo sapiens, UniProt O60341); assay: Enzyme inhibition assay (in vitro peroxidase assay) against LSD1
# Procedure: Enzyme inhibition assays against LSD1, LSD2, MAO-A, and MAO-B were performed as previously described [25]. Technical replicates, n = 3.
smiles,measurement,setting,value
NC1CCC(NC2CC2c2cc(F)cc(F)c2OCc2ccccc2)CC1 (centres unmarked) [S2172],IC50,[1],22.5 µM
same,IC50,[2],33 µM
same,IC50,[3],8.2 µM
same,IC50,[4],21 µM
same,IC50,[5],> 40 µM
same,IC50,[6],17 µM
same,IC50,[7],29.9 µM
same,level of H3K4me2,[8],significantly increased
same,Ki,[9],0.27 ± 0.06 µM
same,kinact,[9]; read-out: kinact LSD1,0.0026 ± 0.0002 s⁻¹
same,kinact/KI,[9]; read-out: kinact/Ki LSD1,9800 ± 570 M⁻¹ s⁻¹

# Reference: PMC11645267, “Novel pharmacologic inhibition of lysine-specific demethylase 1 as a potential therapeutic for glioblastoma” (Cancer Gene Therapy, 2024)
